According to patent publication US8049006B2, “7-membered ring compound and method of production and pharmaceutical application thereof” (Daiichi Sankyo Company, Limited, priority 2006, dated 2011):

System: C3H/HeN mice
Conditions: 10 mg/kg orally once a day; 24 hours after DNFB application at fifth week; female C3H/HeN mice

| Compound | inhibition rate of the skin reaction |
| --- | --- |
| CC[C@@H](NC(=O)N1CC(=O)NC[C@@H](Cc2cc(Cl)ccc2OC)C1=O)c1cccc(C(=O)O)c1 [Compound 91, 3-[(1R)-1-({[(6R)-6-(5-chloro-2-methoxybenzyl)-3,7-dioxo-1,4-diazepan-1-yl]carbonyl}amino)propyl]benzoic Acid] | 26.1% |
| COc1ccc(Cl)cc1CC1CNC(=O)CN(S(=O)(=O)c2ccc(Cl)c(N)c2)C1=O.Cl (stereo not drawn) [Compound 90, 4-[(3-amino-4-chlorophenyl)sulfonyl]-6-(5-chloro-2-methoxybenzyl)-1,4-diazepan-2,5-dione Hydrochloride] | 31.0% |
| COc1ccc(Cl)cc1CC1CNC(=O)CN(S(=O)(=O)c2ccc(Cl)cc2)C1=O (stereo not drawn) [Compound 29, 6-(5-chloro-2-methoxybenzyl)-4-[(4-chlorophenyl)sulfonyl]-1,4-diazepan-2,5-dione] | 25.1% |

System: not given
Conditions: not given

| Compound | melting point |
| --- | --- |
| CC[C@@H](NC(=O)N1CC(=O)NC[C@@H](Cc2cc(Cl)ccc2OC)C1=O)c1cccc(C(=O)O)c1 [Compound 91, 3-[(1R)-1-({[(6R)-6-(5-chloro-2-methoxybenzyl)-3,7-dioxo-1,4-diazepan-1-yl]carbonyl}amino)propyl]benzoic Acid] | 121 to 123 °C |
| CC[C@@H](NC(=O)N1CC(=O)NCC(Cc2cc(Cl)ccc2OC)C1=O)C(=O)Nc1nnn[nH]1 (stereo partly drawn) | 141 to 142 °C |
| CC[C@@H](NC(=O)N1CC(=O)NCC(Cc2cc(Cl)ccc2OC)C1=O)C(=O)Nc1ccc(C)c(C(=O)O)c1 (stereo partly drawn) | 132 to 134 °C |
| COc1ccc(Cl)cc1CC1CNC(=O)CN(C(=O)Nc2cccc(NC(C)=O)c2)C1=O (stereo not drawn) | 130 to 131 °C |
| COc1ccc(Cl)cc1CC1CNC(=O)CN(S(=O)(=O)c2ccc(Cl)cc2)C1=O (stereo not drawn) [Compound 29, 6-(5-chloro-2-methoxybenzyl)-4-[(4-chlorophenyl)sulfonyl]-1,4-diazepan-2,5-dione] | 110 to 112 °C |
| COC(=O)C[C@@H]1C(=O)NC[C@H](Cc2cc(F)ccc2OC)C(=O)N1S(=O)(=O)c1ccc(Cl)cc1 | 73 to 76 °C |
| Cc1cccc(CC2CNC(=O)CN(S(=O)(=O)c3ccc(Cl)cc3)C2=O)c1 (stereo not drawn) | 64 to 66 °C |
| CC[C@@H](NC(=O)N1CC(=O)NC[C@@H](Cc2cc(Cl)ccc2OC)C1=O)c1cccc(C(=O)[O-])c1.[Na+] | 161 to 163 °C |
| O=C(CN1CC(Cc2ccccc2)C(=O)N(S(=O)(=O)c2ccc(Cl)cc2)CC1=O)NCc1ccccc1 (stereo not drawn) | 187 to 190 °C |
| N#Cc1ccc(S(=O)(=O)N2CC(=O)NC/C(=C\c3ccccc3)C2=O)cc1 | 239 °C (dec.) |
| COC(=O)COc1ccc(Cl)cc1CC1CNC(=O)CN(S(=O)(=O)c2ccc(Cl)cc2)C1=O (stereo not drawn) | 138 to 140 °C |
| COc1ccc(F)cc1/C=C1\CNC(=O)CN(S(=O)(=O)c2ccc(Cl)s2)C1=O | 150 to 153 °C |
